From the NIST ThermoML archive (doi:10.1016/j.jct.2010.04.018)

Assay: cn = amount concentration of the nth substance listed, in mol/dm3
Settings: 101 kPa, Liquid; for speed of sound: Sing-around technique in a fixed-path interferometer; for mass density: Vibrating tube method

Oc1ccccc1O [1,2-benzenediol] + O
Settings	mass density, 283.15 K [kg/m3]	mass density, 293.15 K [kg/m3]	mass density, 298.15 K [kg/m3]	mass density, 303.15 K [kg/m3]	mass density, 313.15 K [kg/m3]	speed of sound, 283.15 K [m/s]	speed of sound, 293.15 K [m/s]	speed of sound, 298.15 K [m/s]	speed of sound, 303.15 K [m/s]	speed of sound, 313.15 K [m/s]
c1 = 0.0354	1000.62	999.093	997.92	996.509	993.058	1449.9	1484.1	1498.2	1510.5	1529.9
c1 = 0.1697	1003.9	1002.24	1001.01	999.543	995.992	1457.9	1490.6	1504	1515.7	1534.1
c1 = 0.346	1008.13	1006.3	1004.99	1003.46	999.774	1467.9	1498.7	1511.4	1522.2	1539.2
c1 = 0.4721	1011.09	1009.14	1007.78	1006.19	1002.41	1474.5	1504.1	1516.2	1526.6	1542.6
c1 = 0.5008	1011.78	1009.79	1008.42	1006.82	1003.02	1476.5	1505.4	1517.3	1527.5	1543.4
c1 = 0.6589	1015.4	1013.26	1011.82	1010.15	1006.23	1484	1511.8	1523	1532.7	1547.3
c1 = 0.7524	1017.53	1015.29	1013.81	1012.11	1008.12	1488.5	1515.4	1526.3	1535.5	1549.5

Oc1ccc(O)cc1 [1,4-benzenediol] + O
Settings	mass density, 283.15 K [kg/m3]	mass density, 293.15 K [kg/m3]	mass density, 298.15 K [kg/m3]	mass density, 303.15 K [kg/m3]	mass density, 313.15 K [kg/m3]	speed of sound, 283.15 K [m/s]	speed of sound, 293.15 K [m/s]	speed of sound, 298.15 K [m/s]	speed of sound, 303.15 K [m/s]	speed of sound, 313.15 K [m/s]
c1 = 0.011	1000	998.494	997.334	995.934	992.505	1448.2	1482.6	1496.9	1509.3	1529
c1 = 0.0342	1000.53	999.001	997.84	996.428	992.992	1449.2	1483.3	1497.5	1509.9	1529.4
c1 = 0.0554	1001.02	999.463	998.3	996.878	993.436	1450	1483.9	1498.1	1510.3	1529.8
c1 = 0.1035	1002.11	1000.5	999.338	997.892	994.437	1451.9	1485.2	1499.3	1511.5	1530.6
c1 = 0.201	1004.28	1002.58	1001.41	999.925	996.443	1455.5	1487.6	1501.8	1513.7	1532.2
c1 = 0.2996	1006.44	1004.65	1003.48	1001.95	998.439	1458.9	1489.8	1504.1	1515.7	1533.7
c1 = 0.4022	1008.64	1006.75	1005.59	1004.02	1000.49	1462.2	1492	1506.4	1517.8	1535.2

O [water] + Oc1ccccc1O
c2 = 0
Settings	mass density [kg/m3]	speed of sound [m/s]
283.15 K	999.749	–
293.15 K	998.252	–
313.15 K	992.273	1528.8

Oc1cccc(O)c1 [1,3-benzenediol] + O
Settings	mass density, 283.15 K [kg/m3]	mass density, 293.15 K [kg/m3]	mass density, 298.15 K [kg/m3]	mass density, 303.15 K [kg/m3]	mass density, 313.15 K [kg/m3]	speed of sound, 283.15 K [m/s]	speed of sound, 293.15 K [m/s]	speed of sound, 298.15 K [m/s]	speed of sound, 303.15 K [m/s]	speed of sound, 313.15 K [m/s]
c1 = 0.0479	1000.93	999.387	998.206	996.776	993.338	1449.5	1483.7	1497.8	1510	1529.5
c1 = 0.101	1002.08	1000.51	999.325	997.875	994.393	1451.5	1485.2	1499.1	1511.2	1530.3
c1 = 0.1786	1003.79	1002.17	1000.95	999.476	995.941	1454.3	1487.3	1500.9	1512.8	1531.4
c1 = 0.3402	1007.38	1005.58	1004.28	1002.77	999.12	1459.9	1491.6	1504.7	1515.9	1533.7
c1 = 0.4522	1009.8	1007.9	1006.56	1005	1001.29	1463.5	1494.5	1507.1	1518	1535.2
c1 = 0.5654	1012.22	1010.22	1008.84	1007.25	1003.46	1467.2	1497.3	1509.6	1520.1	1536.6
c1 = 0.7623	1016.36	1014.19	1012.74	1011.08	1007.17	1473.5	1502	1513.7	1523.7	1539
